PubChem BioAssay (NCI)
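Step 1: Grow cells in 96-well plates. Step 2: Expose to compound for 48 hours at 5 concentrations. Step 3: Interpolate endpoints linearly; if unreached, use highest concentration. Here, GI50 denotes the concentration required for 50% inhibition of growth. TGI marks complete inhibition of growth.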

Assays:
Assay in all cases: DTP human tumour cell line panel, 48 h
[1] = tested on: 786-0 renal
[2] = tested on: A498 renal
[3] = tested on: A549 NSCLC
[4] = tested on: ACHN renal
[5] = tested on: BT-549 breast
[6] = tested on: CAKI-1 renal
[7] = tested on: CCRF-CEM leukemia
[8] = tested on: COLO 205 colon
[9] = tested on: DU-145 prostate
[10] = tested on: EKVX NSCLC
[11] = tested on: HCC-2998 colon
[12] = tested on: HCT-116 colon
[13] = tested on: HCT-15 colon
[14] = tested on: HL-60(TB) leukemia
[15] = tested on: HOP-62 NSCLC
[16] = tested on: HOP-92 NSCLC
[17] = tested on: HS 578T breast
[18] = tested on: HT29 colon
[19] = tested on: IGROV1 ovarian
[20] = tested on: K-562 leukemia
[21] = tested on: KM12 colon
[22] = tested on: LOX IMVI melanoma
[23] = tested on: M14 melanoma
[24] = tested on: MALME-3M melanoma
[25] = tested on: MCF7 breast
[26] = tested on: MDA-MB-231 breast
[27] = tested on: MDA-MB-435
[28] = tested on: MDA-MB-468 breast
[29] = tested on: MOLT-4 leukemia
[30] = tested on: NCI-H226 lung
[31] = tested on: NCI-H23 lung
[32] = tested on: NCI-H460 lung
[33] = tested on: NCI-H522 lung
[34] = tested on: OVCAR-3 ovarian
[35] = tested on: OVCAR-4 ovarian
[36] = tested on: OVCAR-5 ovarian
[37] = tested on: OVCAR-8 ovarian
[38] = tested on: PC-3 prostate
[39] = tested on: RPMI-8226 leukemia
[40] = tested on: RXF 393 renal
[41] = tested on: SF-268 CNS
[42] = tested on: SF-295 CNS
[43] = tested on: SF-539 CNS
[44] = tested on: SK-MEL-2 melanoma
[45] = tested on: SK-MEL-28 melanoma
[46] = tested on: SK-MEL-5 melanoma
[47] = tested on: SK-OV-3 ovarian
[48] = tested on: SN12C renal
[49] = tested on: SNB-19 CNS
[50] = tested on: SNB-75 CNS
[51] = tested on: SR leukemia
[52] = tested on: SW-620 colon
[53] = tested on: T-47D breast
[54] = tested on: TK-10 renal
[55] = tested on: U251 CNS
[56] = tested on: UACC-257 melanoma
[57] = tested on: UACC-62 melanoma
[58] = tested on: UO-31 renal

**Q.** `O=C(c1ccc(Cl)cc1)C1[C@H](c2ccc(Br)cc2)[C@@H](c2ccccc2)NC12C(=O)Nc1ccc(Br)cc12` (stereo partly specified) was tested. Which GI50 [1] did it give?
**A.** 1.34 µM

**Q.** And the TGI [1]?
**A.** 4.15 µM

**Q.** What about the GI50 [2] of the same compound?
**A.** 5.34 µM

**Q.** What about the TGI [2] of the same compound?
**A.** 11.6 µM

**Q.** And the GI50 [3]?
**A.** 1.6 µM

**Q.** And the TGI [3]?
**A.** 6.03 µM

**Q.** And the GI50 [4]?
**A.** 1.52 µM

**Q.** What about the TGI [4] of the same compound?
**A.** 5.07 µM

**Q.** And the GI50 [5]?
**A.** 2.47 µM

**Q.** And the TGI [5]?
**A.** 8.33 µM

**Q.** And the GI50 [6]?
**A.** 1.71 µM

**Q.** And the TGI [6]?
**A.** 6.79 µM

**Q.** And the GI50 [7]?
**A.** 1.49 µM

**Q.** And the TGI [7]?
**A.** 4.98 µM

**Q.** What about the GI50 [8] of the same compound?
**A.** 0.946 µM

**Q.** And the TGI [8]?
**A.** 2.08 µM

**Q.** And the GI50 [9]?
**A.** 2.81 µM

**Q.** What about the TGI [9] of the same compound?
**A.** 9.37 µM

**Q.** What about the GI50 [10] of the same compound?
**A.** 1.94 µM

**Q.** What about the TGI [10] of the same compound?
**A.** 8.07 µM

**Q.** What about the GI50 [11] of the same compound?
**A.** 1.62 µM

**Q.** And the TGI [11]?
**A.** 4.99 µM

**Q.** And the GI50 [12]?
**A.** 1.09 µM

**Q.** What about the TGI [12] of the same compound?
**A.** 2.35 µM

**Q.** What about the GI50 [13] of the same compound?
**A.** 1.6 µM

**Q.** And the TGI [13]?
**A.** 6.07 µM

**Q.** What about the GI50 [14] of the same compound?
**A.** 1.45 µM

**Q.** What about the TGI [14] of the same compound?
**A.** 6.79 µM

**Q.** What about the GI50 [15] of the same compound?
**A.** 5.17 µM

**Q.** What about the TGI [15] of the same compound?
**A.** 11.5 µM

**Q.** What about the GI50 [16] of the same compound?
**A.** 1.38 µM

**Q.** And the TGI [16]?
**A.** 4.1 µM

**Q.** And the GI50 [17]?
**A.** 4.15 µM

**Q.** And the TGI [17]?
**A.** 18.2 µM

**Q.** And the GI50 [18]?
**A.** 1.19 µM

**Q.** What about the TGI [18] of the same compound?
**A.** 3.09 µM

**Q.** And the GI50 [19]?
**A.** 2.46 µM

**Q.** And the TGI [19]?
**A.** 8.43 µM

**Q.** What about the GI50 [20] of the same compound?
**A.** 1.65 µM

**Q.** What about the TGI [20] of the same compound?
**A.** 6.45 µM

**Q.** What about the GI50 [21] of the same compound?
**A.** 1.82 µM

**Q.** And the TGI [21]?
**A.** 7.45 µM

**Q.** What about the GI50 [22] of the same compound?
**A.** 0.927 µM

**Q.** And the TGI [22]?
**A.** 1.99 µM

**Q.** And the GI50 [23]?
**A.** 1.89 µM

**Q.** And the TGI [23]?
**A.** 7.61 µM

**Q.** What about the GI50 [24] of the same compound?
**A.** 4.86 µM

**Q.** And the TGI [24]?
**A.** 10.7 µM

**Q.** What about the GI50 [25] of the same compound?
**A.** 1.48 µM

**Q.** And the TGI [25]?
**A.** 5.24 µM

**Q.** And the GI50 [26]?
**A.** 1.4 µM

**Q.** What about the TGI [26] of the same compound?
**A.** 4.37 µM

**Q.** What about the GI50 [27] of the same compound?
**A.** 2.79 µM

**Q.** And the TGI [27]?
**A.** 9.4 µM

**Q.** What about the GI50 [28] of the same compound?
**A.** 1.55 µM

**Q.** And the TGI [28]?
**A.** 7.73 µM

**Q.** And the GI50 [29]?
**A.** 1.39 µM

**Q.** And the TGI [29]?
**A.** 5.05 µM

**Q.** And the GI50 [30]?
**A.** 1.81 µM

**Q.** What about the TGI [30] of the same compound?
**A.** 7.96 µM

**Q.** What about the GI50 [31] of the same compound?
**A.** 1.72 µM

**Q.** What about the TGI [31] of the same compound?
**A.** 6.78 µM

**Q.** What about the GI50 [32] of the same compound?
**A.** 1.07 µM

**Q.** What about the TGI [32] of the same compound?
**A.** 2.54 µM

**Q.** And the GI50 [33]?
**A.** 1.42 µM

**Q.** What about the TGI [33] of the same compound?
**A.** 6.69 µM

**Q.** What about the GI50 [34] of the same compound?
**A.** 2.42 µM

**Q.** What about the TGI [34] of the same compound?
**A.** 8.6 µM

**Q.** And the GI50 [35]?
**A.** 2.23 µM

**Q.** And the TGI [35]?
**A.** 9.06 µM

**Q.** And the GI50 [36]?
**A.** 3.55 µM

**Q.** What about the TGI [36] of the same compound?
**A.** 9.88 µM

**Q.** What about the GI50 [37] of the same compound?
**A.** 1.93 µM

**Q.** And the TGI [37]?
**A.** 6.97 µM

**Q.** And the GI50 [38]?
**A.** 1.65 µM

**Q.** What about the TGI [38] of the same compound?
**A.** 6.18 µM

**Q.** What about the GI50 [39] of the same compound?
**A.** 1.45 µM

**Q.** And the TGI [39]?
**A.** 4.86 µM

**Q.** And the GI50 [40]?
**A.** 1.18 µM

**Q.** What about the TGI [40] of the same compound?
**A.** 3.25 µM

**Q.** What about the GI50 [41] of the same compound?
**A.** 1.88 µM

**Q.** And the TGI [41]?
**A.** 9.16 µM

**Q.** What about the GI50 [42] of the same compound?
**A.** 2.13 µM

**Q.** And the TGI [42]?
**A.** 8.48 µM

**Q.** What about the GI50 [43] of the same compound?
**A.** 4.67 µM

**Q.** What about the TGI [43] of the same compound?
**A.** 10.8 µM

**Q.** And the GI50 [44]?
**A.** 5.3 µM

**Q.** And the TGI [44]?
**A.** 11.5 µM

**Q.** And the GI50 [45]?
**A.** 4.78 µM

**Q.** What about the TGI [45] of the same compound?
**A.** 10.7 µM

**Q.** And the GI50 [46]?
**A.** 6.2 µM

**Q.** What about the TGI [46] of the same compound?
**A.** 12.6 µM

**Q.** And the GI50 [47]?
**A.** 5.49 µM

**Q.** What about the TGI [47] of the same compound?
**A.** 13.1 µM

**Q.** What about the GI50 [48] of the same compound?
**A.** 1.04 µM

**Q.** And the TGI [48]?
**A.** 2.43 µM

**Q.** And the GI50 [49]?
**A.** 3.95 µM

**Q.** What about the TGI [49] of the same compound?
**A.** 10.9 µM

**Q.** And the GI50 [50]?
**A.** 1.55 µM

**Q.** And the TGI [50]?
**A.** 8.89 µM

**Q.** What about the GI50 [51] of the same compound?
**A.** 1.03 µM

**Q.** What about the TGI [51] of the same compound?
**A.** 2.99 µM

**Q.** What about the GI50 [52] of the same compound?
**A.** 2.24 µM

**Q.** What about the TGI [52] of the same compound?
**A.** 8.37 µM

**Q.** And the GI50 [53]?
**A.** 1.74 µM

**Q.** What about the TGI [53] of the same compound?
**A.** 7.41 µM

**Q.** And the GI50 [54]?
**A.** 3.07 µM

**Q.** What about the TGI [54] of the same compound?
**A.** 10 µM

**Q.** And the GI50 [55]?
**A.** 1.53 µM

**Q.** What about the TGI [55] of the same compound?
**A.** 6.07 µM

**Q.** What about the GI50 [56] of the same compound?
**A.** 3.29 µM

**Q.** What about the TGI [56] of the same compound?
**A.** 9.91 µM

**Q.** What about the GI50 [57] of the same compound?
**A.** 2.94 µM

**Q.** And the TGI [57]?
**A.** 9.44 µM

**Q.** What about the GI50 [58] of the same compound?
**A.** 1.53 µM

**Q.** What about the TGI [58] of the same compound?
**A.** 6.36 µM
